Data reported in ChEMBL document CHEMBL4507276 (2021).

Columns and labels:
Conditions in all cases: Compound concentration 1000.0 nM
[1] = target: Dual specificity protein kinase CLK4 (Homo sapiens) (UniProt Q9HAZ1)
[2] = target: T1, Rhodopsin kinase GRK7 (Homo sapiens) (UniProt Q8WTQ7)
T1 sequence (whole entry): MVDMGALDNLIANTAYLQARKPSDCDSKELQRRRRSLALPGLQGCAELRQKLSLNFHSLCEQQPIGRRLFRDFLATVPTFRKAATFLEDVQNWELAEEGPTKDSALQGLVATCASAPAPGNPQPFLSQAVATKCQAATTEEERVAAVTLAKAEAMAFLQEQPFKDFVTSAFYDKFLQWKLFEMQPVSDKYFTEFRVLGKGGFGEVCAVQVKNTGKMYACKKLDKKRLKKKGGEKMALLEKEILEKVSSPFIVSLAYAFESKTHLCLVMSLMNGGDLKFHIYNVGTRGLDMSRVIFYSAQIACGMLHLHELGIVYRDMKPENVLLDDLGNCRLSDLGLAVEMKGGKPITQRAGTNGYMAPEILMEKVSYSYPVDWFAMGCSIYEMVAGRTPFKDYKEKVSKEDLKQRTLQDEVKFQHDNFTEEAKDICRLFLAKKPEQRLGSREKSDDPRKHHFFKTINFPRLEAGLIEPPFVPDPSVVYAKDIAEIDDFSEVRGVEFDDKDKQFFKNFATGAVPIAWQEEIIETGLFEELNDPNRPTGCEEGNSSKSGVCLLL

[3] = target: T2, MAP kinase-activated protein kinase 5 (Homo sapiens) (UniProt Q8IW41)
T2 sequence (whole entry): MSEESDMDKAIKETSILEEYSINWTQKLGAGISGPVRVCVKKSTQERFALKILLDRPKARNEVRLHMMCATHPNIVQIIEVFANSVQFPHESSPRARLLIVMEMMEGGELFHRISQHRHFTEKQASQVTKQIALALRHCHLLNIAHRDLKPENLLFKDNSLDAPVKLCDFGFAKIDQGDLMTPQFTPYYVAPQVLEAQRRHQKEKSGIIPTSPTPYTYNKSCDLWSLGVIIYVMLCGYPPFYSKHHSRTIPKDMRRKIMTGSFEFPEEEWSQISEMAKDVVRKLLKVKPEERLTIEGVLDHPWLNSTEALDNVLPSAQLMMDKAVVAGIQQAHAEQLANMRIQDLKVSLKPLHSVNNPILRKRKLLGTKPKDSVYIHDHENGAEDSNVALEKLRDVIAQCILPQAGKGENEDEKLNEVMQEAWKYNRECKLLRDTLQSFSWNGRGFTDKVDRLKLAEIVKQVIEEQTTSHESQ

[4] = target: SRSF protein kinase 3 (Homo sapiens) (UniProt Q9UPE1)
[5] = target: Ribosomal protein S6 kinase alpha-3 (Homo sapiens) (UniProt P51812)
[6] = target: STE20-like serine/threonine-protein kinase (Homo sapiens) (UniProt Q9H2G2)
[7] = tested on: Phosphatidylinositol 4,5-bisphosphate 3-kinase catalytic subunit alpha isoform (Homo sapiens), P42336 [C420R]
[8] = target: Mast/stem cell growth factor receptor Kit (Homo sapiens) (UniProt P10721)
[9] = target: T3, Ephrin type-B receptor 2 (Homo sapiens) (UniProt P29323)
T3 sequence (whole entry): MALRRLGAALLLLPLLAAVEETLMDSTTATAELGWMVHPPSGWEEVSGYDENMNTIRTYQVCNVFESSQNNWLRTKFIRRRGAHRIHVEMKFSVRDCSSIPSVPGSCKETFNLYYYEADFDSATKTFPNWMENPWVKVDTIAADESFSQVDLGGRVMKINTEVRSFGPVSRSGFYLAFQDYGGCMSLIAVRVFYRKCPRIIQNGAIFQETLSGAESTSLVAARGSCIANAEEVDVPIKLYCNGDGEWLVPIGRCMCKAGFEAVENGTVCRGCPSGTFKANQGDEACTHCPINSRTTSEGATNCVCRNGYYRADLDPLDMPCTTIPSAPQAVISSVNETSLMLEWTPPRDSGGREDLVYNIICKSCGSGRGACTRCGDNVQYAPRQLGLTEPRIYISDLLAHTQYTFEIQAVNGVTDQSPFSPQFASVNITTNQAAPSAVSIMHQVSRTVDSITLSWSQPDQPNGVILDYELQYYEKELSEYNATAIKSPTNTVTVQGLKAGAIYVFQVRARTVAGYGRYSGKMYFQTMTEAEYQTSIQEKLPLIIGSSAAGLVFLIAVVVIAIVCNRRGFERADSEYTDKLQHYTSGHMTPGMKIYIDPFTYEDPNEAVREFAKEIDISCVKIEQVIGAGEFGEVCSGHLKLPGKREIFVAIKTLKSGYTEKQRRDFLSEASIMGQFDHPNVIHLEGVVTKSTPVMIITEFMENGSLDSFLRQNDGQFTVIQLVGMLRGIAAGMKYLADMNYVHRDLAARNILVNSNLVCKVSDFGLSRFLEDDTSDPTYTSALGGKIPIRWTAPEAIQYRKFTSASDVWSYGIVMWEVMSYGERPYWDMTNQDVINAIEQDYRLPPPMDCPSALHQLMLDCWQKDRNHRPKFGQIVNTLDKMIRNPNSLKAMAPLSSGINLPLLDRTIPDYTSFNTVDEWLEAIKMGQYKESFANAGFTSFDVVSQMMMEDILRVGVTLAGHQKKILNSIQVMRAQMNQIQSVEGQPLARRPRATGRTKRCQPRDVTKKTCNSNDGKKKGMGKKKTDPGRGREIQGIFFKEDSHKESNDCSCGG

Chain of STE20-like serine/threonine-protein kinase (Homo sapiens) (Q9H2G2 whole entry, looked up, canonical isoform): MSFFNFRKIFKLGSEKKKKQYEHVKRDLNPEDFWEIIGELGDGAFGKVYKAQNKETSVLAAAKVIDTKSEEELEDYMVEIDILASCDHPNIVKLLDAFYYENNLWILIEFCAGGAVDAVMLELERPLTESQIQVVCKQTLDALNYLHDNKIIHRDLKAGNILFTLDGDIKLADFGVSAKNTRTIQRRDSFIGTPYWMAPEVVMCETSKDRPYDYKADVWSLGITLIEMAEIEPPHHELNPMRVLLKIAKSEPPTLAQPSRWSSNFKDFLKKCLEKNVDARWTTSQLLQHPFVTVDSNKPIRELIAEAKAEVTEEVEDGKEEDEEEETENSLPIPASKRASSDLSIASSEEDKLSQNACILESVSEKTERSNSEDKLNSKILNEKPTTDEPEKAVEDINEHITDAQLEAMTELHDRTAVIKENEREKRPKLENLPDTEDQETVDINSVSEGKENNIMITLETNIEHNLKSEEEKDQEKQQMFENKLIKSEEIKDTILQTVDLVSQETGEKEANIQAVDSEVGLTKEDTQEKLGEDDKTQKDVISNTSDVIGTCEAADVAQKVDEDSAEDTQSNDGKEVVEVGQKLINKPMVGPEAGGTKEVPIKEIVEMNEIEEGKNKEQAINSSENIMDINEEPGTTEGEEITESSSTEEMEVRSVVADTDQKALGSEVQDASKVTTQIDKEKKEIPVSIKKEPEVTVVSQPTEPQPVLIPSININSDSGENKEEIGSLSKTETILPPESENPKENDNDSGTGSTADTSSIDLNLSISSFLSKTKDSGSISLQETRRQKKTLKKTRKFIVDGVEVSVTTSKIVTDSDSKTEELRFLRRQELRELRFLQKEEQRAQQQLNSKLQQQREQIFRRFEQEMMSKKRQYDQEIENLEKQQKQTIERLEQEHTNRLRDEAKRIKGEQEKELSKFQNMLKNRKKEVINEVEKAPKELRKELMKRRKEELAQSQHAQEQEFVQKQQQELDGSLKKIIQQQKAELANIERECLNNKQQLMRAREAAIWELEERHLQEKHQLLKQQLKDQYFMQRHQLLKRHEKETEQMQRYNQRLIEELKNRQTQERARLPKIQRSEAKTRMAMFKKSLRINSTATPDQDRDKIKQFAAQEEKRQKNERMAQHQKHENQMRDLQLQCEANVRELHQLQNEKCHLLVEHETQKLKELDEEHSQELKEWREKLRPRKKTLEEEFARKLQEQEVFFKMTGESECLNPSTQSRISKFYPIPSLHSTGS
Chain of Phosphatidylinositol 4,5-bisphosphate 3-kinase catalytic subunit alpha isoform (Homo sapiens), P42336 [C420R] (P42336 whole entry C420R, canonical isoform): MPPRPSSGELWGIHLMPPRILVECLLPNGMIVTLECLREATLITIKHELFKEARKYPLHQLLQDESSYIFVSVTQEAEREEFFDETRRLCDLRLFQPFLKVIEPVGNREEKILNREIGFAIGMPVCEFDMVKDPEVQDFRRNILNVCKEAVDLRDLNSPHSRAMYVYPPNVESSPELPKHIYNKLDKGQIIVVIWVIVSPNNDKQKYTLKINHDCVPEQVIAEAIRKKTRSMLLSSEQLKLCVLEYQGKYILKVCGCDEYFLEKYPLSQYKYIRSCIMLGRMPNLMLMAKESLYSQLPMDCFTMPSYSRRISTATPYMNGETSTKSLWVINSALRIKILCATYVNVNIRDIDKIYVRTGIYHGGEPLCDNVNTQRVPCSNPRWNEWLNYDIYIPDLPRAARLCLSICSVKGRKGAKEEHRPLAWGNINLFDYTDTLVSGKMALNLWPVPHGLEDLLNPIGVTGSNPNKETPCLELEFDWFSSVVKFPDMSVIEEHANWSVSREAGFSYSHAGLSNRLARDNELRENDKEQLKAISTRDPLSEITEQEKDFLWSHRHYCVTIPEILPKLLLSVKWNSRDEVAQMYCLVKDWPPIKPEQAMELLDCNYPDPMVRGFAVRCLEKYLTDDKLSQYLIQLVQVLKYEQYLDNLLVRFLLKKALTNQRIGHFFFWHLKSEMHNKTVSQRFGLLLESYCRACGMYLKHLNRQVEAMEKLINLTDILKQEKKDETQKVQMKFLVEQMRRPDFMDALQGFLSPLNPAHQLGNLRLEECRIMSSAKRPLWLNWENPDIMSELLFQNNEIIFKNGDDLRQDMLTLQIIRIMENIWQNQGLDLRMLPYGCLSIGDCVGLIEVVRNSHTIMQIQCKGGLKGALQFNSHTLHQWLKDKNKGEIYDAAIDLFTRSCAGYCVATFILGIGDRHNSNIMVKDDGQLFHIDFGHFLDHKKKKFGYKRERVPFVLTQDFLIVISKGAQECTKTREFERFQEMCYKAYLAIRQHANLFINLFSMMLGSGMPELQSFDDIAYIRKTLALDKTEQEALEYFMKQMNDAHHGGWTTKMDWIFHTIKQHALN
Chain of Ribosomal protein S6 kinase alpha-3 (Homo sapiens) (P51812 whole entry): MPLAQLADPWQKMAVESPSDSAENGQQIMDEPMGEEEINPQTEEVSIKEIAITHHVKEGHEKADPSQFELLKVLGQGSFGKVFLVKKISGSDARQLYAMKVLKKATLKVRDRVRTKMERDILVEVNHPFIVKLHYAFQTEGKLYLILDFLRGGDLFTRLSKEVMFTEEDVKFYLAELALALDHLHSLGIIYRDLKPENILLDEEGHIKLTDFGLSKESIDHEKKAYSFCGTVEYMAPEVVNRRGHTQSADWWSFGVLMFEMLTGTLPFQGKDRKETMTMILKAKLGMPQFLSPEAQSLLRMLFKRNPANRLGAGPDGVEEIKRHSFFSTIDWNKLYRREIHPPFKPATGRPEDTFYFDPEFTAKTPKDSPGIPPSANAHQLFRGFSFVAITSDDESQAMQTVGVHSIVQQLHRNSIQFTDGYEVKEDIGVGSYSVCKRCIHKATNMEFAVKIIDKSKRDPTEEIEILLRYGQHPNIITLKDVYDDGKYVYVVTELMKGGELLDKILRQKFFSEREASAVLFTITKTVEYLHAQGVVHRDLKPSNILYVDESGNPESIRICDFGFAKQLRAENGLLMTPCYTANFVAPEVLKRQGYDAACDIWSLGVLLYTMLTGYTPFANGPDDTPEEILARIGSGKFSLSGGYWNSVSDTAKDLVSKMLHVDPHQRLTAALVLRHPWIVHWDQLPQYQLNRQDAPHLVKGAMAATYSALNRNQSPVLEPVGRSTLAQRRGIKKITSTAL
Chain of SRSF protein kinase 3 (Homo sapiens) (Q9UPE1 whole entry): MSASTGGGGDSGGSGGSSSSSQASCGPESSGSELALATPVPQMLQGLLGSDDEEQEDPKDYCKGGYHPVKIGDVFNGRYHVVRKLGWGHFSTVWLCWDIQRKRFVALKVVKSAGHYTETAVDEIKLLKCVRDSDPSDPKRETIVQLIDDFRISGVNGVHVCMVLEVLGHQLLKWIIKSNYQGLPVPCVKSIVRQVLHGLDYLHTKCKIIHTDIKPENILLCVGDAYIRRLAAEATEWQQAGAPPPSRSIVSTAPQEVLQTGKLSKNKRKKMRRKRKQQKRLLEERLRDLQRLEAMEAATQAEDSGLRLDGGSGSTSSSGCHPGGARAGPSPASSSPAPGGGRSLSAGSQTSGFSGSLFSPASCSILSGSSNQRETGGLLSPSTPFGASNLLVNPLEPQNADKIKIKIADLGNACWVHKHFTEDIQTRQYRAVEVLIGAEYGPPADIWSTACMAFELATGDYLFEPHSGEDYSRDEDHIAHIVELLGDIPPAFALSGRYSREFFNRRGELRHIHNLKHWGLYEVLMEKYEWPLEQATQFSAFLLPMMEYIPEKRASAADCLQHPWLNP
Chain of Mast/stem cell growth factor receptor Kit (Homo sapiens) (P10721 whole entry): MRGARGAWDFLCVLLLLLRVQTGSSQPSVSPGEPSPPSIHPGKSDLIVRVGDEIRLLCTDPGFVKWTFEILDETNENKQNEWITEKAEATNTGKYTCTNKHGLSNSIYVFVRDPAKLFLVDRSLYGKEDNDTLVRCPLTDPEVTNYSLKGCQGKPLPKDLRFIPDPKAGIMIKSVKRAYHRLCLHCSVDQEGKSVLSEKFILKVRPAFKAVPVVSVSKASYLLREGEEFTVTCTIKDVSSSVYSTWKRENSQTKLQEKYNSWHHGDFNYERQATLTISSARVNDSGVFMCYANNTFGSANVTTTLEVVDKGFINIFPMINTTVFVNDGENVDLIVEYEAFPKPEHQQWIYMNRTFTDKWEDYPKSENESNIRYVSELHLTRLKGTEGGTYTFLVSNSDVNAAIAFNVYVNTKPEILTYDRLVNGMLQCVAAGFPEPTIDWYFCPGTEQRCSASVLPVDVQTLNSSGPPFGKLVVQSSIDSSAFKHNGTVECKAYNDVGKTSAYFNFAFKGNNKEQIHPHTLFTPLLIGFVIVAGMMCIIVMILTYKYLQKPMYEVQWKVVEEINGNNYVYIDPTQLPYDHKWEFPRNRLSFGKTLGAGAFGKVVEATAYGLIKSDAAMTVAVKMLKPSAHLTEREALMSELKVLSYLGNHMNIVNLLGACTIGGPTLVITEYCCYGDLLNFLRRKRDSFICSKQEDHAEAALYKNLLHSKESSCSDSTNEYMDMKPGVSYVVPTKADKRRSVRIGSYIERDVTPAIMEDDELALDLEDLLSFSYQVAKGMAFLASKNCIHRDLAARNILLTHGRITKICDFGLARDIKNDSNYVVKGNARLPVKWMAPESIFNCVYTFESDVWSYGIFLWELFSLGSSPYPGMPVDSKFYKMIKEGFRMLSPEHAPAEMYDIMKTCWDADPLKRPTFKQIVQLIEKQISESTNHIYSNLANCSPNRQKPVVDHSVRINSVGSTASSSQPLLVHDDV
Chain of Dual specificity protein kinase CLK4 (Homo sapiens) (Q9HAZ1 whole entry, looked up): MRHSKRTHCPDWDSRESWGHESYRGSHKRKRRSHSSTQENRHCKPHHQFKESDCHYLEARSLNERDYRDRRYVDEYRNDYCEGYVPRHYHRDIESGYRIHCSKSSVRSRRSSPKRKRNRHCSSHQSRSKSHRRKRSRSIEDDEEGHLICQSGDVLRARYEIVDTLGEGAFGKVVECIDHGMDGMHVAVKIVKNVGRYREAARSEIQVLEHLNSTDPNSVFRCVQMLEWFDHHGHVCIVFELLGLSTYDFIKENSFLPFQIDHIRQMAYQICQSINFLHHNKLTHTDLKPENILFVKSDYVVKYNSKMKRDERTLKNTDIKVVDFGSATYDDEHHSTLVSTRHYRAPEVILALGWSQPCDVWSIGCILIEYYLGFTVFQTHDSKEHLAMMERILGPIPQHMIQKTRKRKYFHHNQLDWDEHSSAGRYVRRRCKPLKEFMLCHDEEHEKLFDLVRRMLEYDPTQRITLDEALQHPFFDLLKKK

SMILES | residual activity [1] [%] | residual activity [2] [%] | residual activity [3] [%] | residual activity [4] [%] | residual activity [5] [%] | residual activity [6] [%] | residual activity [7] [%] | residual activity [8] [%] | residual activity [9] [%]
CN(C)C(=O)Cn1cc(-c2nc(C3(c4ccc(-c5cnc(N)nc5)cc4)CC3)no2)cn1 [BI 0153] | 89 | 84 | 92 | 100 | 92 | 77 | 95 | 77 | 70
CN(C)C(=O)Cn1cc(-c2nc([C@@](C)(c3ccc(-c4cnc(N)nc4)cc3)C3CC3)no2)cn1 [BI 665915] | 99 | 0 | 94 | 85 | 83 | 94 | 73 | 86 | 87
